PubChem BioAssay AID248 (DTP/NCI, 2004)
Values joined by “and” are separate entries in the source; they are usually repeats but may differ in a detail not shown here. Equal entries are not always repeated. Toxic doses and inconclusive results are not listed. Rule as the data show it: active = T/C of 150% or more; inactive = T/C below 125%.

System: L1210 leukemia ip in BDF1 mice, survival T/C
Test: NCI In Vivo Anticancer Drug Screen. Data for tumor model L1210 Leukemia (intraperitoneal) in B6D2F1 (BDF1) mice
Details: endpoint: mean survival time, higher = longer survival
Procedure, shortened: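 Tumor was transplanted into mice, which were then dosed with test compound or vehicle alone. Survival was recorded for each group, and the treated figure was expressed relative to the control figure.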

[1] = dose: 100.0 mg/kg/injection, schedule: Q01DX001 (ip), vehicle: Klucel (hydroxypropylcellulose) (HPC)
[2] = dose: 100.0 mg/kg/injection, schedule: Q04DX003 (ip), vehicle: Klucel (hydroxypropylcellulose) (HPC)
[3] = dose: 200.0 mg/kg/injection, schedule: Q04DX003 (ip), vehicle: Klucel (hydroxypropylcellulose) (HPC)
[4] = dose: 400.0 mg/kg/injection, schedule: Q01DX001 (ip), vehicle: Klucel (hydroxypropylcellulose) (HPC)
[5] = dose: 400.0 mg/kg/injection, schedule: Q04DX003 (ip), vehicle: Klucel (hydroxypropylcellulose) (HPC)
[6] = dose: 100.0 mg/kg/injection, schedule: Q01DX009 (ip), vehicle: Klucel (hydroxypropylcellulose) (HPC)
[7] = dose: 200.0 mg/kg/injection, schedule: Q01DX009 (ip), vehicle: Klucel (hydroxypropylcellulose) (HPC)
[8] = dose: 400.0 mg/kg/injection, schedule: Q01DX009 (ip), vehicle: Klucel (hydroxypropylcellulose) (HPC)
[9] = dose: 100.0 mg/kg/injection, schedule: Q01DX009 (ip), vehicle: saline
[10] = dose: 200.0 mg/kg/injection, schedule: Q01DX009 (ip), vehicle: saline
[11] = dose: 400.0 mg/kg/injection, schedule: Q01DX009 (ip), vehicle: saline
[12] = dose: 50.0 mg/kg/injection, schedule: Q01DX009 (ip), vehicle: saline
[13] = dose: 100.0 mg/kg/injection, schedule: Q01DX001 (ip), vehicle: saline
[14] = dose: 200.0 mg/kg/injection, schedule: Q01DX001 (ip), vehicle: saline
[15] = dose: 400.0 mg/kg/injection, schedule: Q01DX001 (ip), vehicle: saline
[16] = dose: 100.0 mg/kg/injection, schedule: Q04DX003 (ip), vehicle: saline with Tween-80
[17] = dose: 200.0 mg/kg/injection, schedule: Q04DX003 (ip), vehicle: saline with Tween-80
[18] = dose: 400.0 mg/kg/injection, schedule: Q04DX003 (ip), vehicle: saline with Tween-80
[19] = dose: 100.0 mg/kg/injection, schedule: Q01DX009 (ip), vehicle: saline with Tween-80
[20] = dose: 200.0 mg/kg/injection, schedule: Q01DX009 (ip), vehicle: saline with Tween-80
[21] = dose: 400.0 mg/kg/injection, schedule: Q01DX009 (ip), vehicle: saline with Tween-80

Measured: T/C

O=[N+]([O-])c1ccc(SNc2ccc(NSc3ccc([N+](=O)[O-])cc3)cc2)cc1
inactive: dose: 25.0 mg/kg/injection, schedule: Q01DX001 (ip), vehicle: saline with Tween-80 96 % of control | dose: 50.0 mg/kg/injection, schedule: Q01DX001 (ip), vehicle: saline with Tween-80 100 % of control

CCCCCCCCCCCCCCCCOc1ccc(Cl)cc1
inactive: [1] 95 % of control | [2] 97 % of control | [3] 87 % of control | [4] 92 % of control | [5] 93 % of control

COc1ccccc1OC1CCCCC1OS(C)(=O)=O (stereo not drawn)
inactive: [1] 95 % of control | [6] 95 % of control | [2] 102 % of control | dose: 200.0 mg/kg/injection, schedule: Q01DX001 (ip), vehicle: Klucel (hydroxypropylcellulose) (HPC) 105 % of control | [7] 101 % of control | [3] 101 % of control | [4] 95 % of control | [8] 95 % of control | [5] 95 % of control

O=C1CCCc2ccc(Cl)cc21
inactive: [9] 96 % of control | [10] 97 % of control | [11] 94 % of control

CC12CC3C(C(=O)O)C(C(=O)O)C1C(C(=O)O2)C3C(=O)O (stereo not drawn)
inactive: [12] 97 % of control | [13] 91 % of control | [9] 90 % of control | [14] 89 % of control | [10] 100 % of control | [15] 87 % of control

CC(O)(c1ccccc1)c1ccccc1
inactive: dose: 50.0 mg/kg/injection, schedule: Q01DX001 (ip), vehicle: saline 95 % of control | [13] 101 % of control | [16] 100 % of control | [14] 97 % of control | [17] 100 % of control | [15] 97 % of control | [18] 110 % of control

CCOC(=O)CC(C)=O.[Cu+2]
inactive: dose: 6.25 mg/kg/injection, schedule: Q01DX009 (ip), vehicle: saline 96 % of control | dose: 12.5 mg/kg/injection, schedule: Q01DX009 (ip), vehicle: saline 104 % of control | dose: 12.5 mg/kg/injection, schedule: Q04DX003 (ip), vehicle: Klucel (hydroxypropylcellulose) (HPC) 94 % of control | dose: 25.0 mg/kg/injection, schedule: Q01DX009 (ip), vehicle: saline 90 % of control | dose: 25.0 mg/kg/injection, schedule: Q04DX003 (ip), vehicle: Klucel (hydroxypropylcellulose) (HPC) 96 % of control

Cc1ccc2c(c1)P(=O)(O)c1cc(F)ccc1O2
inactive: [12] 105 % of control | [9] 112 % of control | [10] 112 % of control | [11] 108 % of control

O=C1CC(c2ccccc2)(c2ccccc2)c2ccccc21
inactive: dose: 25.6 mg/kg/injection, schedule: Q04DX002 (ip), vehicle: saline with Tween-80 98 % of control | dose: 64.0 mg/kg/injection, schedule: Q04DX002 (ip), vehicle: saline with Tween-80 102 % of control | dose: 160.0 mg/kg/injection, schedule: Q04DX002 (ip), vehicle: saline with Tween-80 91 % of control | dose: 400.0 mg/kg/injection, schedule: Q04DX002 (ip), vehicle: saline with Tween-80 96 % of control

O=C(Nc1ccc([N+](=O)[O-])cc1Cl)Oc1ccc(Br)cc1Br
inactive: [16] 100 % of control | [17] 95 % of control | [18] 100 % of control

O=C(NCCCCC(NC(=O)c1ccccc1)C(=O)NCCCCCCCCCCNC(=O)C(CCCCNC(=O)c1ccccc1)NC(=O)c1ccccc1)c1ccccc1 (stereo not drawn)
inactive: dose: 10.0 mg/kg/injection, schedule: Q01DX Z (ip), vehicle: saline 100 % of control | dose: 30.0 mg/kg/injection, schedule: Q01DX Z (ip), vehicle: saline 90 % of control

O=C(Nc1ccc2ccccc2c1)c1ccccc1Cl
inactive: [6] 93 % of control | [7] 101 % of control | [8] 101 % of control

CC(=O)Nc1ccc(/C=N/NC(N)=S)cc1
inactive: dose: 100.0 mg/kg/injection, schedule: Q04DX013 (ip), vehicle: carboxymethylcellulose (CMC) 94 % of control | dose: 200.0 mg/kg/injection, schedule: Q04DX013 (ip), vehicle: carboxymethylcellulose (CMC) 98 % of control

O=C(/C=N/O)c1cccnc1
inactive: [16] 97 % of control

CC(=O)c1c(O)cc(O)cc1O
inactive: [19] 96 % of control | [20] 91 % of control | [21] 98 % of control

CC(=O)[OH2+].CC(=O)[OH2+].[O-]c1ccc2ccccc2c1CN1CCCCC1.[O-]c1ccc2ccccc2c1CN1CCCCC1.[O]=[U+2]=[O].[O]=[U+2]=[O]
inactive: dose: 5.0 mg/kg/injection, schedule: Q01DX001 (ip), vehicle: other 105 % of control | dose: 10.0 mg/kg/injection, schedule: Q01DX001 (ip), vehicle: other 111 % of control

Cc1ccc(N=C(c2ccc([N+](=O)[O-])cc2)c2ccc([N+](=O)[O-])cc2)cc1
inactive: [6] 97 % of control | [2] 96 % of control | [7] 96 % of control | [3] 102 % of control | [8] 102 % of control | [5] 96 % of control

Cc1c(F)cc(I)cc1[N+](=O)[O-]
inactive: dose: 100.0 mg/kg/injection, schedule: Q01DX001 (ip), vehicle: acetone 100 % of control | [19] 103 % of control | [16] 100 % of control | dose: 200.0 mg/kg/injection, schedule: Q01DX001 (ip), vehicle: acetone 95 % of control | [20] 105 % of control | [17] 100 % of control | dose: 400.0 mg/kg/injection, schedule: Q01DX001 (ip), vehicle: acetone 97 % of control | [21] 103 % of control | [18] 93 % of control

O=C(N/N=C/c1cccc([N+](=O)[O-])c1)C(O)C(O)C(O)C(O)CO (stereo not drawn)
inactive: dose: 100.0 mg/kg/injection, schedule: Q01DX001 (ip), vehicle: carboxymethylcellulose (CMC) 97 % of control | dose: 100.0 mg/kg/injection, schedule: Q01DX009 (ip), vehicle: carboxymethylcellulose (CMC) 102 % of control | dose: 100.0 mg/kg/injection, schedule: Q04DX002 (ip), vehicle: carboxymethylcellulose (CMC) 100 % of control | dose: 100.0 mg/kg/injection, schedule: Q04DX003 (ip), vehicle: carboxymethylcellulose (CMC) 94 % of control | dose: 200.0 mg/kg/injection, schedule: Q01DX001 (ip), vehicle: carboxymethylcellulose (CMC) 104 % of control | dose: 200.0 mg/kg/injection, schedule: Q01DX009 (ip), vehicle: carboxymethylcellulose (CMC) 104 % of control and 91 % of control | dose: 200.0 mg/kg/injection, schedule: Q04DX002 (ip), vehicle: carboxymethylcellulose (CMC) 96 % of control and 106 % of control | dose: 200.0 mg/kg/injection, schedule: Q04DX003 (ip), vehicle: carboxymethylcellulose (CMC) 100 % of control | dose: 400.0 mg/kg/injection, schedule: Q01DX001 (ip), vehicle: carboxymethylcellulose (CMC) 95 % of control | dose: 400.0 mg/kg/injection, schedule: Q01DX009 (ip), vehicle: carboxymethylcellulose (CMC) 94 % of control | dose: 400.0 mg/kg/injection, schedule: Q04DX002 (ip), vehicle: carboxymethylcellulose (CMC) 103 % of control and 91 % of control | dose: 400.0 mg/kg/injection, schedule: Q04DX003 (ip), vehicle: carboxymethylcellulose (CMC) 94 % of control
